According to patent US7989459B2, “Purinones and 1H-imidazopyridinones as PKC-theta inhibitors” (Pharmacopeia, LLC, priority 2006, dated 2011):

Tests used:
Assay type in all cases: biochemical
PKC delta = PKC delta (Homo sapiens, UniProt Q05655); test: Ki Pan Vera (PV) PKC delta
PKC alpha = PKC alpha (Homo sapiens, UniProt P17252); test: Ki Pan Vera (PV) PKC alpha
Description: [Worded in the source for another target; this target is reported under the same test.] (§1) For Ki Pan Vera (PV) of PKCθ, entries identified with “A” had values below 100 nM; entries identified with “B” had values below 1 μM.

PKCθ = PKCθ (Homo sapiens, UniProt Q04759); test: Ki Pan Vera (PV) PKCθ
Chain of PKCθ (Q04759 whole entry): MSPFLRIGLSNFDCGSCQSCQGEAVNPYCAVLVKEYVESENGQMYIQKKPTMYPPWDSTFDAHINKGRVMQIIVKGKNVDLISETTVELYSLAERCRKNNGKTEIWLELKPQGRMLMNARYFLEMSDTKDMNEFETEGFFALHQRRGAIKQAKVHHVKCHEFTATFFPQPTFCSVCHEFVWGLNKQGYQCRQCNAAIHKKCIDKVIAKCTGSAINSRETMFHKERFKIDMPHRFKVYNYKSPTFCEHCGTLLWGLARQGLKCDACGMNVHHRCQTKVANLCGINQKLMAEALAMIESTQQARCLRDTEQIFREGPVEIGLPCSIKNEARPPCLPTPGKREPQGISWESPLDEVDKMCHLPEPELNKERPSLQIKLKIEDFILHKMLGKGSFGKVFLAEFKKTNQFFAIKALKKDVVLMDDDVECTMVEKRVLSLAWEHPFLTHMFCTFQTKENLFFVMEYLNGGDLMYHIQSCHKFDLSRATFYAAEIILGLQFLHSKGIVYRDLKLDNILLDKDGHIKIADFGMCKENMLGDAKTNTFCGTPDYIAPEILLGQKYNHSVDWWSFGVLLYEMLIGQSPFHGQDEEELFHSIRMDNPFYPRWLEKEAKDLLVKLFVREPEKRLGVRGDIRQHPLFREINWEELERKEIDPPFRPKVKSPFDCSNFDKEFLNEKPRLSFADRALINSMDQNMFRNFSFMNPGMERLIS
Description: as §1

SGK1 = target: T1, SGK1 (Homo sapiens, UniProt O00141); test: IC50 for kinase SGK (selectivity)
T1 sequence (O00141 1-431): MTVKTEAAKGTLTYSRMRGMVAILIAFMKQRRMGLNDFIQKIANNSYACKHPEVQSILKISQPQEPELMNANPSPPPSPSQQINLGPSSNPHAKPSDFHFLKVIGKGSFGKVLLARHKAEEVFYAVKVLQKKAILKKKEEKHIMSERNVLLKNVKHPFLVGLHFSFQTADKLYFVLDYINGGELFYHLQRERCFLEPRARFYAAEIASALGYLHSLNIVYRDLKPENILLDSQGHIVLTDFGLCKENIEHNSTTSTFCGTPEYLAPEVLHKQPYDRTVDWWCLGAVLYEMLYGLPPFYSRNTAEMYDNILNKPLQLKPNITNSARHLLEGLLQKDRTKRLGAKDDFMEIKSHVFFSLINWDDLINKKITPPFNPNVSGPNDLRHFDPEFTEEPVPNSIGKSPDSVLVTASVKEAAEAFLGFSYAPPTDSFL
Description: Entries identified with “1” had values above 15 nM; entries identified with “2” had values above 100 nM; entries identified with “3” had values above 1 μM; entries identified with “4” had values above 10 μM. In Table 2, “nd” stands for “not determined.”

Chain of PKC delta (Q05655 whole entry): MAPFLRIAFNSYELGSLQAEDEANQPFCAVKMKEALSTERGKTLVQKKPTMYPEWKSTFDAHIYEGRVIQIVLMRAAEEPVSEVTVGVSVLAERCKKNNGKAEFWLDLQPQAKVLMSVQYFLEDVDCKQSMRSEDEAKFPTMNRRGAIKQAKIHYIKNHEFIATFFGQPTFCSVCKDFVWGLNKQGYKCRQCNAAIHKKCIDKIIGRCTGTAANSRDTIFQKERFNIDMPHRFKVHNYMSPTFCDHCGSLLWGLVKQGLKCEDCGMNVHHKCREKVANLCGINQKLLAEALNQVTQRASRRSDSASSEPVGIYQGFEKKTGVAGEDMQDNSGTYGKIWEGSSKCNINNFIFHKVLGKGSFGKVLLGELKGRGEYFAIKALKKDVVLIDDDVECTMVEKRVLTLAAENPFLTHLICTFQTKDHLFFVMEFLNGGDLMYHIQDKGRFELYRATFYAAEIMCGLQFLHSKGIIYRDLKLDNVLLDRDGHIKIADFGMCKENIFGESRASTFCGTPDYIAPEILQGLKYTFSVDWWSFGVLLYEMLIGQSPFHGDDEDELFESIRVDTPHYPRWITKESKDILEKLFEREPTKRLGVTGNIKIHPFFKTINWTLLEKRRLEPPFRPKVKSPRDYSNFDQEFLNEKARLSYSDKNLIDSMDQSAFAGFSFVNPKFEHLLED

| Structure (SMILES) | Ki (PKC delta) [nM] | Ki (PKC alpha) [nM] | Ki (PKCθ) [nM] | IC50 (SGK1) [nM] | IC50-SGK1 (nM) (SGK1) |
| --- | --- | --- | --- | --- | --- |
| O=c1[nH]c2cnc(NC[C@H]3CCNC3)nc2n1Cc1ccccc1Cl [Compound 103] | > 15 | > 1000 | < 100 | > 1000 |  |
| O=c1[nH]c2cnc(NCC3CCNC3)nc2n1Cc1ccccc1Br (centres unmarked) [Compound 104] | > 15 | > 1000 | < 100 | > 10000 |  |
| O=c1[nH]c2cnc(NCC3CCNC3)nc2n1Cc1cc(F)ccc1C(F)(F)F (centres unmarked) [Compound 105] | > 15 | > 1000 | < 100 | > 1000 |  |
| O=c1[nH]c2cnc(NCC3CCNC3)nc2n1Cc1c(F)cccc1Cl (centres unmarked) [Compound 106] | > 15 | > 1000 | < 100 | > 10000 |  |
| O=c1[nH]c2cnc(NCC3CCNC3)nc2n1Cc1ccccc1OC(F)(F)F (centres unmarked) [Compound 112] | > 100 | > 1000 | < 100 |  | Inactive |
| O=c1[nH]c2cnc(NCC3CCNC3)nc2n1Cc1ccccc1Cl (centres unmarked) [Compound 113] | > 15 | > 1000 | < 100 | > 10000 |  |
| O=c1[nH]c2cnc(NCC3CCNC3)nc2n1Cc1cccc(Cl)c1Cl (centres unmarked) [Compound 114] | > 100 | > 10000 | < 100 | > 10000 |  |
| NCCCNc1ncc2[nH]c(=O)n(Cc3cccc(Cl)c3Cl)c2n1 [Compound 117] | > 100 | > 10000 | < 100 |  | Inactive |
| NCCCNc1ncc2[nH]c(=O)n(Cc3c(F)cccc3Cl)c2n1 [Compound 118] | > 100 | > 10000 | < 100 |  | Inactive |
| O=c1[nH]c2cnc(NCC3CCNC3)nc2n1Cc1c(F)cccc1F (centres unmarked) [Compound 119] | > 100 | > 10000 | < 100 |  | Inactive |
| O=c1[nH]c2cnc(NCCCn3ccnc3)nc2n1Cc1c(Cl)cccc1C(F)(F)F [Compound 207] | > 100 | > 10000 | < 1000 |  |  |
| NCCCNc1ncc2[nH]c(=O)n(Cc3cccc(Cl)c3)c2n1 [Compound 214] | > 1000 | > 10000 | < 1000 |  |  |
| Cc1ccccc1Cn1c(=O)[nH]c2cnc(NCCCN)nc21 [Compound 216] | > 1000 | > 10000 | < 1000 |  |  |
| COc1ccccc1Cn1c(=O)[nH]c2cnc(NCCCN)nc21 [Compound 218] | > 1000 | > 10000 | < 1000 |  |  |

Second part, the compound after the results:

| Ki (PKC delta) [nM] | Ki (PKC alpha) [nM] | Ki (PKCθ) [nM] | IC50 (SGK1) [nM] | IC50-SGK1 (nM) (SGK1) | Structure (SMILES) |
| --- | --- | --- | --- | --- | --- |
| > 15 | > 1000 | < 100 | > 10000 |  | O=c1[nH]c2cnc(NCC3CCNC3)nc2n1Cc1c(Cl)cccc1Cl (centres unmarked) [Compound 108] |
| > 15 | > 1000 | < 100 |  |  | O=c1[nH]c2cnc(NCC3CCNC3)nc2n1Cc1ccccc1C(F)(F)F (centres unmarked) [Compound 109] |
| > 100 | > 1000 | < 100 | > 10000 |  | O=c1[nH]c2cnc(NC[C@@H]3CCNC3)nc2n1Cc1ccccc1C(F)(F)F [Compound 116] |
| > 100 | > 1000 | < 100 |  | Inactive | O=c1[nH]c2cnc(NC[C@H]3CCNC3)nc2n1Cc1ccccc1C(F)(F)F [Compound 122] |
| > 100 | > 10000 | < 100 | > 10000 |  | NCCCNc1ncc2[nH]c(=O)n(Cc3ccccc3Cl)c2n1 [Compound 124] |
| > 100 | > 10000 | < 100 |  |  | O=c1[nH]c2ccc(NC[C@H]3CCNC3)nc2n1Cc1c(Cl)cccc1Cl [Compound 148] |
| > 1000 | > 10000 | < 1000 |  |  | O=c1[nH]c2cnc(NCC3CCNCC3)nc2n1Cc1cccc(Cl)c1 [Compound 215] |
| > 1000 | > 1000 | < 1000 |  |  | O=c1[nH]c2cnc(NCC3CCNCC3)nc2n1-c1cccc(Cl)c1 [Compound 224] |
| > 1000 | > 10000 | < 1000 |  |  | O=c1[nH]c2cnc(NCC3CCNC3)nc2n1[C@@H]1CCc2ccccc21 (some centres unmarked) [Compound 231] |
